What was measured:
[1] = tested on: Peripheral blood mononuclear cells co-cultured with venular endothelial cells (Sag system); test: BioMAP Sag system, Example 828; format: cell-based, human
Experimental: (§1) The BioMAP platform (BioMAP® Diversity PLUS Panel from Eurofins) is an in vitro phenotypic profiling technology that screened the compounds of the present disclosure (hereafter indicated as test agents) in human primary cell-based systems modelling complex tissue and disease states. The BioMAP assays were performed using the Eurofin's BioMAP Technology Platform as (see references 1 to 13 in the example 824 section) to model different diseases on primary cell-based model systems. These systems consisted of either single primary cell types or co-culture cells. Adherent cell types were cultured or co-cultured in 96 or 384-well plates until confluence followed by the addition of compounds prepared in DMSO at a final concentration of ≤0.1%. In each cell-based system, primary cells from heathy donors (2-6 donors) were pooled and treated with compounds at 1 and 10 μM dose 1 h prior to stimulation and remain in culture as indicated in
(§2) Example 825, Example 826, Example 827, Example 828, Example 829, Example 830, Example 831, Example 832, Example 833, Example 834, Example 835, Example 836 and Example 837. For on the BioMAP® Diversity PLUS® Panel, please see the following references, which are incorporate herein.
Following the general procedure as described in Example 824, Peripheral blood mononuclear cells were co-cultured with venular endothelial cells and treated with soluble antigen (T-cell ligands) (Sag system) in the presence or absence of compounds to model autoimmune and chronic inflammation. Biomarkers read out were; MCP-1, CD38, CD40, E-selectin, CD69, IL-8, MIG, PBMC cytotoxicity, Proliferation and SRB.

[2] = tested on: Venular Endothelial cells (HUVEC) (3C system); test: BioMAP 3C system, Example 825; format: cell-based, human
Experimental: as §1, with “In each cell-based system, primary cells from heathy donors (2-6 donors) were pooled and treated with compounds at 1 and 10 μM dose 1 h prior to stimulation and remain in culture as indicated in” left out
Following the general procedure as described in Example 824, Venular Endothelial cells (HUVEC) (3C system) were treated with IL-1β, TNFα, IFNγ for 24 h to model Th1 driven cardiovascular and chronic inflammation diseases in the presence or absence of the compounds. Biomarker read out were; Tissue Factor, ICAM-1, E-selectin, uPAR (CD87), IL-8, […], HLA-DR, proliferation and SRB (Sulfo-rhodamine i.e. staining for protein content).

[3] = tested on: HepG2 cells; test: Glucose uptake Glo Assay, Example 821; format: cell-based
Experimental: The effect of compounds from the present disclosure on glucose uptake was determined in HepG2 cells (ATCC, HB-8065) using the glucose uptake Glo Assay Kit (Promega, 11343 according to manufacturer instructions. HepG2 cells were cultured in complete DMEM-glucose media (Gibco) supplemented with 10% FBS (37° C. incubator with 5% CO2) and seeded in 96-well plates at 30,000 cells/well. After removing the complete media, 100 μL/well of serum-free, high-glucose DMEM media were added to the wells and incubated overnight (37° C. incubator with 5% CO2). Media was then replaced with 100 μl/well DPBS containing 0.6°/o BSA and starved for 1 hour. Next, DPBS was removed and 45 μl/well of insulin (100 nM) or compounds (10 μM-50 μM) were added to the wells and incubated for 10 minutes (37° C. incubator with 5% CO2). Insulin and compounds were prepared in DPBS with 0.6% BSA with a final DMSO concentration of 0.1%. Next, 5 μl of 2DG (10 mM) in DPBS were added per well and allowed to incubate for 20 minutes followed by addition of 25 μl stop buffer. 37.5 μl of the mixture were then transferred to a new plate and 12.5 μl of Neutralization buffer added to the wells. After, 50 μl of 2DG6P detection Reagent were added and incubated for 0.5-1 hour at room temperature. Luminescence was measured with 0.3-1 second integration on a luminometer.

[4] = tested on: Coronary artery smooth muscle cells (CASM3C system); test: BioMAP CASM3C system, Example 832; format: cell-based, human
Experimental: as §1, §2
Following the general procedure as described in Example 824, Coronary artery smooth muscle cells (CASM3C system) were treated with IL-1β, TNFα and IFNγ for 24 h in the presence or absence of the compounds to model cardiovascular inflammation and restenosis. Biomarker reads out were; MCP-1, VCAM-1, Throbomodulin, Tissue factor, uPAR, IL-8, MIG, HLA-DR, IL-6, LDLR, M-CSF, PAI-1, Proliferation, SAA and SRB

[5] = tested on: Venular Endothelial cells (HUVEC) (4H system); test: BioMAP 4H system, Example 826; format: cell-based, human
Experimental: as §1, §2
Following the general procedure as described in Example 824, Venular Endothelial cells (HUVEC) (4H system) were treated with IL-4 and histamine for 24 h to model Th2 driven allergy and autoimmunity in the presence or absence of compounds. Biomarkers read out were; MCP-1, Eotaxin-3. VCAM-1, P-selectin, uPAR (CD87), SRB and VEGFRII.

[6] = tested on: Bronchial epithelial cells co-cultured with dermal fibroblast (BF4T system); test: BioMAP BF4T system, Example 830; format: cell-based, human; details: for % increase in Eotaxin-3 / % increase in VCAM-1: 10 uM
Experimental: as §1, §2
Following the general procedure as described in Example 824, Bronchial epithelial cells were co-cultured with dermal fibroblast (BF4T system) and were treated with TNFα and IL-4 for 24 h in the presence or absence of the compounds to model asthma, allergy, fibrosis, lung inflammation. Biomarkers read out were; MCP-1, Eotaxin-3, VCAM-1, ICAM-1, CD90, IL-8, IL-1α, keratin 8/18, MMP-1, MMP-3, MMP-9, PAI-1, SRB, tPA, uPA.

[7] = procedure of Example 825, concentration tested 10 uM
[8] = Homo sapiens, 20 min, read-out: % increase in Glucose Uptake
[9] = procedure of Example 825, concentration tested 1 uM

C/C=C/C(=O)SCCNC(=O)CCNC(=O)[C@@H]1OP(=O)(O)OCC1(C)C [Compound 36]
% decrease in CXCL8/IL-8 ([1]; Sag system, 10 uM): ≥10% | % decrease in CXCL8/IL-8 ([1]; concentration tested 10 uM): ≥10% | % decrease in IL-8 ([2]; 3C system, 10 uM): ≥10% | % increase in Proliferation (HUVEC) ([2]; 3C system, 10 uM): ≥20% | % increase in Proliferation (HUVEC) ([2]; concentration tested 10 uM): ≥20% | % decrease in IL-8 [2, 7]: ≥10% | activation at 50 µM [3, 8]: ≥ 30% | % increase in Glucose Uptake ([3]; concentration tested 50 uM): ≥30% | % decrease in LDLR ([4]; 1 uM): ≥10% | % decrease in VCAM-1 ([4]; 1 uM): ≥10% | % decrease in uPAR ([4]; 1 uM): ≥10% | % decrease in HLA-DR ([4]; 10 uM): ≥10% | % decrease in M-CSF ([4]; 10 uM): ≥10% | % decrease in Thrombomodulin ([4]; 10 uM): ≥20% | % decrease in Tissue Factor ([4]; 10 uM): ≥10% | % decrease in E-Selectin ([5]; 4H system, 1 uM): ≥20% | % decrease in Eotaxin-3 ([5]; 4H system, 1 uM): ≥10% | % decrease in MCP-1 ([5]; 4H system, 1 uM): ≥10% | % decrease in VEGFRII ([5]; 4H system, 1 uM): ≥20% | % decrease in E-Selectin ([5]; concentration tested 1 uM): ≥20% | % decrease in Eotaxin-3 ([5]; concentration tested 1 uM): ≥10% | % decrease in MCP-1 ([5]; concentration tested 1 uM): ≥10% | % decrease in VEGFRII ([5]; concentration tested 1 uM): ≥20%

CC(=O)CC(=O)SCCNC(=O)CCNC(=O)[C@@H]1OP(=O)(O)OCC1(C)C [Compound 42]
% increase in CD69 ([1]; Sag system, 10 uM): ≥10% | % increase in MCP-1 ([1]; Sag system, 10 uM): ≥10% | % increase in CD69 ([1]; concentration tested 10 uM): ≥10% | activation at 10 µM ([3]; Homo sapiens, 20 min, 10 uM, read-out: % increase in Glucose Uptake): ≥ 30% | % increase in Glucose Uptake ([3]; concentration tested 10 uM): ≥30% | % increase in Eotaxin-3 [6]: ≥10% | % increase in VCAM-1 [6]: ≥10% | % decrease in IL-8 ([4]; 10 uM): ≥10% | % decrease in LDLR ([4]; 10 uM): ≥10% | % decrease in Thrombomodulin ([4]; 10 uM): ≥10% | % decrease in E-Selectin ([5]; 4H system, 1 uM): ≥10% | % decrease in Eotaxin-3 ([5]; 4H system, 1 uM): ≥10% | % decrease in VEGFRII ([5]; 4H system, 1 uM): ≥10% | % decrease in E-Selectin ([5]; concentration tested 1 uM): ≥10% | % decrease in Eotaxin-3 ([5]; concentration tested 1 uM): ≥10% | % decrease in VEGFRII ([5]; concentration tested 1 uM): ≥10%

CCOP1(=O)OCC(C)(C)[C@H](C(=O)NCCC(=O)NCCSC(=O)CCC(=O)O)O1 (some centres unmarked) [Compound 61]
% increase in PBMC Cytotoxicity ([1]; Sag system, 10 uM): ≥10% | % increase in PBMC Cytotoxicity ([1]; concentration tested 10 uM): ≥10% | % decrease in IL-8 ([2]; 3C system, 1 uM): ≥10% | % decrease in IL-8 [2, 9]: ≥10% | activation at 50 µM [3, 8]: ≥ 10% | % increase in Glucose Uptake ([3]; concentration tested 50 uM): ≥10% | % increase in Eotaxin-3 [6]: ≥10% | % decrease in Tissue Factor ([4]; 1 uM): ≥10% | % decrease in VCAM-1 ([4]; 1 uM): ≥10% | % decrease in LDLR ([4]; 10 uM): ≥10% | % decrease in Thrombomodulin ([4]; 10 uM): ≥20% | % decrease in E-Selectin ([5]; 4H system, 10 uM): ≥10% | % decrease in MCP-1 ([5]; 4H system, 10 uM): ≥10% | % decrease in E-Selectin ([5]; concentration tested 10 uM): ≥10% | % decrease in MCP-1 ([5]; concentration tested 10 uM): ≥10%

COC(=O)CCC(=O)SCCNC(=O)CCNC(=O)[C@@H]1OC(=O)OCC1(C)C [Compound 451]
% decrease in CXCL8/IL-8 ([1]; Sag system, 10 uM): ≥10% | % decrease in CXCL8/IL-8 ([1]; concentration tested 10 uM): ≥10% | % decrease in IL-8 ([2]; 3C system, 1 uM): ≥10% | % increase in Proliferation (HUVEC) ([2]; 3C system, 10 uM): ≥20% | % increase in Proliferation (HUVEC) ([2]; concentration tested 10 uM): ≥20% | % decrease in IL-8 [2, 9]: ≥10% | activation at 50 µM [3, 8]: ≥ 20% | % increase in Glucose Uptake ([3]; concentration tested 50 uM): ≥20% | % increase in Eotaxin-3 [6]: ≥10% | % increase in VCAM-1 [6]: ≥10% | % decrease in Thrombomodulin ([4]; 1 uM): ≥10% | % decrease in VCAM-1 ([4]; 1 uM): ≥10% | % decrease in HLA-DR ([4]; 10 uM): ≥10% | % increase in IL-6 ([4]; 10 uM): ≥10% | % decrease in E-Selectin ([5]; 4H system, 1 uM): ≥10% | % decrease in Eotaxin-3 ([5]; 4H system, 1 uM): ≥10% | % decrease in VEGFRII ([5]; 4H system, 1 uM): ≥10% | % decrease in MCP-1 ([5]; 4H system, 10 uM): ≥10% | % decrease in E-Selectin ([5]; concentration tested 1 uM): ≥10% | % decrease in Eotaxin-3 ([5]; concentration tested 1 uM): ≥10% | % decrease in VEGFRII ([5]; concentration tested 1 uM): ≥10% | % decrease in MCP-1 ([5]; concentration tested 10 uM): ≥10%

COC(=O)CCC(=O)SCCNC(=O)CCNC(=O)[C@@H]1OC(C)(CC(=O)OC)OCC1(C)C (some centres unmarked) [Compound 633]
% increase in Proliferation (HUVEC) ([2]; 3C system, 1 uM): ≥20% | % decrease in IL-8 ([2]; 3C system, 10 uM): ≥20% | % increase in Proliferation (HUVEC) ([2]; concentration tested 1 uM): ≥20% | % decrease in IL-8 [2, 7]: ≥20% | % decrease in MMP-9 ([6]; 1 uM): ≥10% | % increase in Eotaxin-3 [6]: ≥10% | % decrease in HLA-DR ([4]; 1 uM): ≥10% | % decrease in LDLR ([4]; 1 uM): ≥10% | % decrease in M-CSF ([4]; 1 uM): ≥10% | % decrease in Thrombomodulin ([4]; 1 uM): ≥10% | % decrease in Tissue Factor ([4]; 1 uM): ≥10% | % decrease in VCAM-1 ([4]; 1 uM): ≥10% | % decrease in uPAR ([4]; 1 uM): ≥10% | % decrease in IL-8 ([4]; 10 uM): ≥10% | % decrease in E-Selectin ([5]; 4H system, 1 uM): ≥20% | % decrease in Eotaxin-3 ([5]; 4H system, 1 uM): ≥10% | % decrease in VEGFRII ([5]; 4H system, 1 uM): ≥10% | % decrease in MCP-1 ([5]; 4H system, 10 uM): ≥10% | % decrease in E-Selectin ([5]; concentration tested 1 uM): ≥20% | % decrease in Eotaxin-3 ([5]; concentration tested 1 uM): ≥10% | % decrease in VEGFRII ([5]; concentration tested 1 uM): ≥10% | % decrease in MCP-1 ([5]; concentration tested 10 uM): ≥10%

Reference: patent US12037354B2, “Cyclic pantetheine derivatives and uses thereof” (VectivBio Comet AG, priority 2018, dated 2024)
